This is an account of results in ChEMBL document CHEMBL1781956, “Design, synthesis and insulin-sensitizing activity of indomethacin and diclofenac derivatives” (Bioorg Med Chem Lett, 2009).

Common to all, as to assay type: functional
Assay [1] has as its system 3T3-L1. Kind of assay: Insulin sensitizing activity in mouse 3T3L1 cells assessed as triglyceride accumulation at 1 uM by insulin-regulated cell differentiation assay relative to rosiglitazone.
The subject of assay [2] is 3T3-L1. Kind of assay: Insulin sensitizing activity in mouse 3T3L1 cells assessed as triglyceride accumulation by insulin-regulated cell differentiation assay.
The target of assay [3] is T1, Peroxisome proliferator-activated receptor gamma (Homo sapiens, UniProt P37231).
T1 sequence (P37231 whole entry): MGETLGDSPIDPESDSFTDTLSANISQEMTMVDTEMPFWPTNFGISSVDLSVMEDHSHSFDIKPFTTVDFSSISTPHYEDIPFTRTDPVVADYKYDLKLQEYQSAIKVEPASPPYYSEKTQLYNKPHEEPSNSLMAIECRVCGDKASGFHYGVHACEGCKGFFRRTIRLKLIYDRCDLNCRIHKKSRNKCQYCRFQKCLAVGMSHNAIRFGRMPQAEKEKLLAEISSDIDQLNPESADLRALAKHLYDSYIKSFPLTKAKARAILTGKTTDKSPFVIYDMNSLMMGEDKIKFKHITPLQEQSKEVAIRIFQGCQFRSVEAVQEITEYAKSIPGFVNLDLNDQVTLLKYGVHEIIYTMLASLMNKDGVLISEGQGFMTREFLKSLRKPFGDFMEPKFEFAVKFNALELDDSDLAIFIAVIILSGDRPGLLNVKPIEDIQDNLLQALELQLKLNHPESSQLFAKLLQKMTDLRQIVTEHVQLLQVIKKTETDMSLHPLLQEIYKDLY
Kind of assay: Agonist activity at human PPARgamma in human U2OS cells by cell based transactivation assay. As to conditions: for EC50: u2os.

Assay [4] addresses T2, Peroxisome proliferator-activated receptor gamma (Homo sapiens) (UniProt P37231).
T2 sequence (whole entry): T1 sequence (P37231 whole entry)
In words: Agonist activity at human PPARgamma in human U2OS cells by cell based transactivation assay relative to rosiglitazone.

Each structure is given as a SMILES string. pEC50: −log10 of the molar value. Activity calls are given as the source filed them. The rule behind the calls is not given here.

For `COC(=O)Cc1c(C)n(C(=O)c2ccc(Cl)cc2)c2ccc(OCCC/C=C(\C)CC/C=C(\C)CCC=C(C)C)cc12`, the Activity in the assay on 3T3-L1 [1] came out at 81%. For the same compound, the EC30 with 3T3-L1 [2] amounted to 2.88 ×10⁻⁷ M.
Regarding `Cc1c(CC(=O)O)c2cc(OCCN3COc4ccccc4C3=O)ccc2n1C(=O)c1ccc(Cl)cc1`, the Activity with 3T3-L1 [1] stood at 41%.
Consider `COC(=O)Cc1c(C)n(C(=O)c2ccc(Cl)cc2)c2ccc(OCCc3nc(-c4ccc(Cl)cc4)oc3C)cc12`, for which the Activity in the assay with 3T3-L1 [1] was found to be 57%. Also, the EC30 in the assay on 3T3-L1 [2] is 2 ×10⁻⁶ M.
On to `COC(=O)Cc1c(C)n(C(=O)c2ccc(Cl)cc2)c2ccc(OCCc3nc(-c4ccc(-c5ccccc5)cc4)oc3C)cc12`, for which, in the assay on 3T3-L1 [1], the Activity is 138%. In addition, in the assay with 3T3-L1 [2], the EC30 is reported as 1.23 ×10⁻⁸ M. Besides, the negative logarithm of the EC50 (pEC50) (in general, the EC50 on a negative log10 scale, so that one unit is a factor of ten) in assay [3] is 7.70. In addition, the Emax in assay [4] turned out to be 141%.
Regarding `Cc1oc(-c2ccc(Cl)cc2)nc1CCOc1ccc2c(c1)c(CC(=O)O)c(C)n2C(=O)c1ccc(Cl)cc1`, in the assay with 3T3-L1 [1], the Activity came out at 38%.
On to `COC(=O)Cc1c(C)n(C(=O)c2ccc(Cl)cc2)c2ccc(OCCc3nc(-c4cccc(OC)c4)oc3C)cc12`, for which the Activity in the assay with 3T3-L1 [1] is 85%. In addition, the EC30 in the assay with 3T3-L1 [2] is given as 3.16 ×10⁻⁷ M.
On to `Cc1oc(-c2ccccc2)nc1CCOc1ccc2c(c1)c(CC(=O)O)c(C)n2C(=O)c1ccc(Cl)cc1`, for which, in the assay with 3T3-L1 [1], the Activity worked out at 36%. Further, the EC30 with 3T3-L1 [2] is 6.17 ×10⁻⁶ M. Also, the Emax in assay [4] turned out to be 79%.
For `O=C(O)Cc1ccc(OCc2ccccc2)cc1Nc1c(Cl)cccc1Cl`, in that order: 98%, 2.51 ×10⁻⁷ M and 35%.
For `Cc1c(CC(=O)O)c2cc(OCCN3CCOCC3)ccc2n1C(=O)c1ccc(Cl)cc1`, the Activity with 3T3-L1 [1] was determined as 36%.
`COC(=O)Cc1c(C)n(C(=O)c2ccc(Cl)cc2)c2ccc(OCCc3nc(-c4ccccc4)oc3C)cc12`: the Activity in the assay with 3T3-L1 [1] amounted to 80%. In the assay with 3T3-L1 [2], the EC30 was found to be 2.75 ×10⁻⁷ M. The pEC50 in assay [3] is 6.21. Also, in assay [4], the Emax stood at 74%.
As to `CCc1ccc(CCOc2ccc3c(c2)c(CC(=O)O)c(C)n3C(=O)c2ccc(Cl)cc2)nc1`, the Activity with 3T3-L1 [1] came out at 42%. Moreover, the EC30 with 3T3-L1 [2] stood at 5.89 ×10⁻⁶ M.
For `COc1cccc(-c2nc(CCOc3ccc4c(c3)c(CC(=O)O)c(C)n4C(=O)c3ccc(Cl)cc3)c(C)o2)c1` the same measures were 76% and 3.75 ×10⁻⁷ M.
As to `COC(=O)Cc1c(C)n(C(=O)c2ccc(Cl)cc2)c2ccc(OCCN3CCCCC3)cc12`, the Activity in the assay on 3T3-L1 [1] came to 33%.
Turning to `COC(=O)Cc1c(C)n(C(=O)c2ccc(Cl)cc2)c2ccc(OCc3ccccc3)cc12`, the Activity with 3T3-L1 [1] came to 134%. The EC30 in the assay with 3T3-L1 [2] came to 6.56 ×10⁻⁹ M. Also, the EC50 entry in assay [3] is given as “Not Active”. Besides, the Emax entry in assay [4] is “inactive”.
Take `COC(=O)Cc1c(C)n(C(=O)c2ccc(Cl)cc2)c2ccc(OCCN3COc4ccccc4C3=O)cc12`: the Activity in the assay with 3T3-L1 [1] is 47%.
Same read-out and setting: the figure for `COC(=O)Cc1c(C)n(C(=O)c2ccc(Cl)cc2)c2ccc(OCCN3CCOCC3)cc12` is 42%.
Turning to `Cc1oc(-c2ccc(-c3ccccc3)cc2)nc1CCOc1ccc2c(c1)c(CC(=O)O)c(C)n2C(=O)c1ccc(Cl)cc1`, in the assay with 3T3-L1 [1], the Activity stood at 129%. Moreover, in the assay on 3T3-L1 [2], the EC30 is reported as 3.31 ×10⁻⁸ M. In addition, the pEC50 in assay [3] was 7.40. In addition, the Emax in assay [4] was found to be 134%.
In the case of `Cc1c(CC(=O)O)c2cc(OCc3ccccc3)ccc2n1C(=O)c1ccc(Cl)cc1`, in the assay with 3T3-L1 [1], the Activity came to 126%. For the same compound, in the assay on 3T3-L1 [2], the EC30 was 9.51 ×10⁻⁹ M. Moreover, the EC50 result in assay [3] was “Not Active”. In addition, the Emax entry in assay [4] is “inactive”.
With `Cc1c(CC(=O)O)c2cc(OCCN3CCCCC3)ccc2n1C(=O)c1ccc(Cl)cc1`, in the assay with 3T3-L1 [1], the Activity is recorded as 30%.
On to `CC(C)=CCC/C(C)=C/CC/C(C)=C/CCCOc1ccc2c(c1)c(CC(=O)O)c(C)n2C(=O)c1ccc(Cl)cc1`, for which the Activity with 3T3-L1 [1] amounted to 74%. Moreover, in the assay with 3T3-L1 [2], the EC30 turned out to be 6.92 ×10⁻⁷ M.
For `CCc1ccc(CCOc2ccc3c(c2)c(CC(=O)OC)c(C)n3C(=O)c2ccc(Cl)cc2)nc1`, in that order: 50% and 1.7 ×10⁻⁶ M.
For `CN(CCOc1ccc(CC2SC(=O)NC2=O)cc1)c1ccccn1` (centres undefined) [ROSIGLITAZONE] the same measures were 100% and 1.05 ×10⁻⁷ M.
